What all share (test): KinomeScan profiling
Format in all cases: binding

In one test the target is ERK1 (Homo sapiens, UniProt P27361). The note with it: ERK1, 1 μM; read-out: % control. In a few lines: (§1)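 Luminescence (RLU) was converted to percent of control, with DMSO set as 100% and a reference compound as 0%. Test compounds were run at 1 μM against 468 kinases. Kinases showing below 35% of control were scored as bound.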
For a further test, the target named is T1, ICK (Homo sapiens, UniProt Q9UPZ9).
T1 sequence (Q9UPZ9 1-632): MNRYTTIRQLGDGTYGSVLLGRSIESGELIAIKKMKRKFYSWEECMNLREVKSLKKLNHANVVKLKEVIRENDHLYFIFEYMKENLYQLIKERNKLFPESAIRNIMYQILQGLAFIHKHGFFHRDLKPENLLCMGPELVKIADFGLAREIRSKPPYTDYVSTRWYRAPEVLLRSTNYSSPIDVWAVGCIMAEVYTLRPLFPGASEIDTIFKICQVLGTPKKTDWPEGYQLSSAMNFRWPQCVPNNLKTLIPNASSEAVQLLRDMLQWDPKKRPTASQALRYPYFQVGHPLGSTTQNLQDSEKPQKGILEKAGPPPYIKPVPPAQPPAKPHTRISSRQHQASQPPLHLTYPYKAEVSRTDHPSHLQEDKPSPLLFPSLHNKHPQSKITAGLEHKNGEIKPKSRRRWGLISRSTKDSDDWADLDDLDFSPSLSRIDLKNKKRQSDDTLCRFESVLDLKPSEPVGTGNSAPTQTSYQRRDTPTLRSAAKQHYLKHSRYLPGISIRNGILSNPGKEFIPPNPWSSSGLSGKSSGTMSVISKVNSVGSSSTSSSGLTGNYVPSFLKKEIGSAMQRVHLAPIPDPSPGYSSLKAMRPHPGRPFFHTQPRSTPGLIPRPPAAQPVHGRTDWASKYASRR
The note with it: read-out: % control. The method in brief:
as §1

For the next test, the target named is LRRK2(G2019S) (Homo sapiens, UniProt Q5S007, G2019S). The note with it: read-out: % control. The method in brief:
as §1

Another test has as its target T2, MEK3 (Homo sapiens, UniProt P46734).
T2 sequence (P46734 1-347): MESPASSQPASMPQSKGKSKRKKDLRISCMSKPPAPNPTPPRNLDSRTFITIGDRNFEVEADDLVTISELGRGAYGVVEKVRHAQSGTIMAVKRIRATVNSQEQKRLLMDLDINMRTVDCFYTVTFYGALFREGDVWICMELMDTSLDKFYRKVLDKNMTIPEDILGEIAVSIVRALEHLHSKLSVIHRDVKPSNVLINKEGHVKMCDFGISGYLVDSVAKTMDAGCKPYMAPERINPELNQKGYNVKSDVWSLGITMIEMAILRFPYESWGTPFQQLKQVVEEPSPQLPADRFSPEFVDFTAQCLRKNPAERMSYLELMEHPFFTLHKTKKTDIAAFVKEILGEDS
The note with it: MEK3, 1 μM; read-out: % control. In a few lines: as §1

The target of the next test is MTOR (Homo sapiens, UniProt P42345). The settings on record: read-out: % control. In a few lines:
as §1

In a further test the target is T3, NEK2 (Homo sapiens, UniProt P51955).
T3 sequence (P51955 1-445): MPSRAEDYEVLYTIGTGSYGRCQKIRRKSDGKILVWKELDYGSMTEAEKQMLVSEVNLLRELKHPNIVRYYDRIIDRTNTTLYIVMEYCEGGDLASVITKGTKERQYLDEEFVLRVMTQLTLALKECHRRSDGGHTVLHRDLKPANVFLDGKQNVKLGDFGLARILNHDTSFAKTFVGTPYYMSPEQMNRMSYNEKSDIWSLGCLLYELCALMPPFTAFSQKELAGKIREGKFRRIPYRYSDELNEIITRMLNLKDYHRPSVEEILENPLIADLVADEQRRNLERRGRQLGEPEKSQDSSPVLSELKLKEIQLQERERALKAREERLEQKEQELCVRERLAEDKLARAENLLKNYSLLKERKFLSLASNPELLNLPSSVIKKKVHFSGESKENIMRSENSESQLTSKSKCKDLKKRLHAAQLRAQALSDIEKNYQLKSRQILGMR
The settings on record: NEK2, 1 μM; read-out: % control. The method in brief: as §1

In another test the target is PCTK2 (Homo sapiens, UniProt Q00537). The settings on record: PCTK2, 1 μM; read-out: % control. In a few lines: as §1
The next test addresses T4, PRKG1 (Homo sapiens, UniProt Q13976).
T4 sequence (Q13976 1-671): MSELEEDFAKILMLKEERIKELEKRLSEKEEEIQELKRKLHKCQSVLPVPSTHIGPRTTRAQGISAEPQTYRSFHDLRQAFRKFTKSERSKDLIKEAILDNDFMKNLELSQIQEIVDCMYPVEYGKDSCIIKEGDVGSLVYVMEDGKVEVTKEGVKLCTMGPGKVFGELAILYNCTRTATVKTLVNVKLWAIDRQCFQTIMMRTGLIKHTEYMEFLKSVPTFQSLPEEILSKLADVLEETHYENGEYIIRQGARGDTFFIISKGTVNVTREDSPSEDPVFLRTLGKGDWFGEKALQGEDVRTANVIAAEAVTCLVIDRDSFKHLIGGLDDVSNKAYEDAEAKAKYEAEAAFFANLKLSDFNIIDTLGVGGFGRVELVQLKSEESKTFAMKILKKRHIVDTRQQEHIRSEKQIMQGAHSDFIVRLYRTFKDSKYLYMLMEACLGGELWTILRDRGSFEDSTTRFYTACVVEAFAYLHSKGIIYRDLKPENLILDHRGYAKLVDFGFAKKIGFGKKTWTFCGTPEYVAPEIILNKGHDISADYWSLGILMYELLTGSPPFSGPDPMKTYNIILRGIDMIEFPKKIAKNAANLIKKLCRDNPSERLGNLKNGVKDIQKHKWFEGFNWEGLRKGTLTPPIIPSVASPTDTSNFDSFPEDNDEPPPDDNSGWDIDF
The settings on record: PRKG1, 1 μM; read-out: % control. In a few lines: as §1

A further test has as its target T5, SBK1 (Homo sapiens, UniProt Q52WX2).
T5 construct: purchased KinomeScan® (panel service)
The settings on record: SBK1, 1 μM; read-out: % control. The method in brief:
as §1

The next test has as its target WNK2 (Homo sapiens, UniProt Q9Y3S1). The note with it: WNK2, 1 μM; read-out: % control. The method in brief: as §1

Each structure is given as a SMILES string.

Sequence of WNK2 (Q9Y3S1 whole entry): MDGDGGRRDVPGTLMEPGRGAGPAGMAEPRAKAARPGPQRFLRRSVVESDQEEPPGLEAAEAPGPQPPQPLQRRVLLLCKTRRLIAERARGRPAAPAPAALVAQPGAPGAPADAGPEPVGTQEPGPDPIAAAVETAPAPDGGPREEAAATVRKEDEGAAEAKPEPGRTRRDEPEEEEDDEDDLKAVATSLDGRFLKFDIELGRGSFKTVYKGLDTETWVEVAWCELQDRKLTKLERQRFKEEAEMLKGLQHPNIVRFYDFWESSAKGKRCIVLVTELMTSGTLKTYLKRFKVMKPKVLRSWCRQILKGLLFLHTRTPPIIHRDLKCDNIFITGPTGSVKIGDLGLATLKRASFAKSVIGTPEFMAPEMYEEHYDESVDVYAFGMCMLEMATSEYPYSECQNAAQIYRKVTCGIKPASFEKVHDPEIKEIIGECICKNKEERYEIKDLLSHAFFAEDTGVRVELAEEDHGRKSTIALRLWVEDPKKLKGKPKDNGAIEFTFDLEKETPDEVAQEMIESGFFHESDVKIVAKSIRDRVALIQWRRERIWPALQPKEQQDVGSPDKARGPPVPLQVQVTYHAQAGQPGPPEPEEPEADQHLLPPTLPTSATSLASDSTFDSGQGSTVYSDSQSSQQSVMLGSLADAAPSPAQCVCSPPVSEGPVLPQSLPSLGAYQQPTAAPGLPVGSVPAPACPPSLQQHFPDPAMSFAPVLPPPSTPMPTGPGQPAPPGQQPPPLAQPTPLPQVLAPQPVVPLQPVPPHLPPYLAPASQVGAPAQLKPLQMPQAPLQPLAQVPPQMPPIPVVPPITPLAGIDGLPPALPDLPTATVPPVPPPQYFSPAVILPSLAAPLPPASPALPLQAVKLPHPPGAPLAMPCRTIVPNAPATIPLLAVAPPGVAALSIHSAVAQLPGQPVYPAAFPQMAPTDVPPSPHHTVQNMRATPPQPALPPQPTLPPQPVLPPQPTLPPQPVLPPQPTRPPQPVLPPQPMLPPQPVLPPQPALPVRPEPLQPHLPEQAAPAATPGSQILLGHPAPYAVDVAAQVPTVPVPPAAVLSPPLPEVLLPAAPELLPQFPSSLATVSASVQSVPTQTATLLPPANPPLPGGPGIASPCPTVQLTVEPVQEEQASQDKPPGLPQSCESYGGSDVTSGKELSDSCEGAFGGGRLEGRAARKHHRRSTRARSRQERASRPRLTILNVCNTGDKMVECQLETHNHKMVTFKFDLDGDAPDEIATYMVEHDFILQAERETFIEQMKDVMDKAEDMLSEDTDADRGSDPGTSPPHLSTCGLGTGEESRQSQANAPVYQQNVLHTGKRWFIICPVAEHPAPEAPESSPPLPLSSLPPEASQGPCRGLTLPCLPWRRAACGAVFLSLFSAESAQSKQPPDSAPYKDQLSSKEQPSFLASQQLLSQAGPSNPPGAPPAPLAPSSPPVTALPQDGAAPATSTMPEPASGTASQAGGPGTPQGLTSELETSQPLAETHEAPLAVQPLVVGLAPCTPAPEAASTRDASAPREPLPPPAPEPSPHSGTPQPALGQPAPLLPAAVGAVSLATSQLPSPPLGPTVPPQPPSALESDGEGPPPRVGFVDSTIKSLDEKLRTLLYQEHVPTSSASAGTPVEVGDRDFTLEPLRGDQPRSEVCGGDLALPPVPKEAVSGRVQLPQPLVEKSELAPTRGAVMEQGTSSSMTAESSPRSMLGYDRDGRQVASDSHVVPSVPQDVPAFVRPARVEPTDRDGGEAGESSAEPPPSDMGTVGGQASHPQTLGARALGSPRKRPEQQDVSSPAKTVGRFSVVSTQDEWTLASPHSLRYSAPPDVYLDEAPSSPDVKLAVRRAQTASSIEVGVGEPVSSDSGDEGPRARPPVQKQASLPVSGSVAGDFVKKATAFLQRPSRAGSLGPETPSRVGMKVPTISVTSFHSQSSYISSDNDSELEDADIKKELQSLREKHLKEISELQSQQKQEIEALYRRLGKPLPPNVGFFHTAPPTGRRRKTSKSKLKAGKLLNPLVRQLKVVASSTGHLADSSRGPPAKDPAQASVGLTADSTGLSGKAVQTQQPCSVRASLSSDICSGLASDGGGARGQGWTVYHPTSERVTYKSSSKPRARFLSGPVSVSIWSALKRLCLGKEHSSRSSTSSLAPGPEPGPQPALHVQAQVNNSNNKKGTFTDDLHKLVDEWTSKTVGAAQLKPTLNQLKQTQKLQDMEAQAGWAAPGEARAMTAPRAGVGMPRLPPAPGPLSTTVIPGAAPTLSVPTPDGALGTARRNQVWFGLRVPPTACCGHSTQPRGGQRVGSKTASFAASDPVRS
Sequence of PCTK2 (Q00537 whole entry): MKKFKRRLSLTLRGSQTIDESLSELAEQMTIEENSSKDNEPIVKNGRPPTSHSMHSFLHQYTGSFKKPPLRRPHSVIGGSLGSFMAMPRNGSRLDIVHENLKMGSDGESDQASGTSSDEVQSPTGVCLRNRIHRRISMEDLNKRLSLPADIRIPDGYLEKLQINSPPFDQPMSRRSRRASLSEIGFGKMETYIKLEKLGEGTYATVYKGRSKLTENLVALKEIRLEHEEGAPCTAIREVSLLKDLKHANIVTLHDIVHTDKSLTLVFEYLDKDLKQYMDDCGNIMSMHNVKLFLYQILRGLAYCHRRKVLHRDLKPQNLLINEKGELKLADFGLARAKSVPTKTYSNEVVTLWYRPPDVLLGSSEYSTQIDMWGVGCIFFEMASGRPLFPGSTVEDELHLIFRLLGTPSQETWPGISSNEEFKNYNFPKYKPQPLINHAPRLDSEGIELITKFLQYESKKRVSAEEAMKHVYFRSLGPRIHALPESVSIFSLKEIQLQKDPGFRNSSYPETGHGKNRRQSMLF
Sequence of ERK1 (P27361 whole entry): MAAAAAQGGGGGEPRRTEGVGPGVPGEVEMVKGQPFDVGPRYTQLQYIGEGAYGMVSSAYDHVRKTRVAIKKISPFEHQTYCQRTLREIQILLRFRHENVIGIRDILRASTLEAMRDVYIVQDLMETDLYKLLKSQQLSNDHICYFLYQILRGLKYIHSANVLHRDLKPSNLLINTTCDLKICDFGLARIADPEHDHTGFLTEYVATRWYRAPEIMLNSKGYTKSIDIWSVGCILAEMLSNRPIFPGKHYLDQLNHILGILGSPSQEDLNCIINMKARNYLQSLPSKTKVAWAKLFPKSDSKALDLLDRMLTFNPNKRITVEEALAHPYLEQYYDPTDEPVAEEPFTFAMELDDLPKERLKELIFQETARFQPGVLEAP
T5 sequence (Q52WX2 whole entry): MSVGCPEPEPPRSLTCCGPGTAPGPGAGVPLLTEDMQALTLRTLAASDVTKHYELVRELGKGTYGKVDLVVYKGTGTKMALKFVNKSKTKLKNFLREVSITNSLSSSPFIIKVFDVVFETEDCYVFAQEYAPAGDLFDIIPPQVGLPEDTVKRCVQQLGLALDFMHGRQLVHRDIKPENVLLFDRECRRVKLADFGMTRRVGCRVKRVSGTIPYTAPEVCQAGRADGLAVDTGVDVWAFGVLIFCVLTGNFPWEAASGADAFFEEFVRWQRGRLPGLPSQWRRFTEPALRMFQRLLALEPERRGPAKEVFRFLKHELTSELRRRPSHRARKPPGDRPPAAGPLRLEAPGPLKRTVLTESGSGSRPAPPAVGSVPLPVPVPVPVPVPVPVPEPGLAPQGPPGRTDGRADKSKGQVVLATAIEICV

Regarding `CNc1c(-c2ccc(C(=O)N3CCC(N4CCOCC4)CC3)cc2)cnc2[nH]cc(Cl)c12` [Compound 96, (4-(3-chloro-4-(methylamino)-1H-pyrrolo[2,3-b]pyridin-5-yl)phenyl)(4-morpholinopiperidin-1-yl)methanone], the remaining binding at 1 µM at ERK1 was 100%; at ICK it was 35%; on LRRK2(G2019S), 3.2%; on MEK3 it was 4.2%; at MTOR, 78%; at NEK2, 100%. The remaining binding at 1 µM is 97% on PCTK2, 100% at PRKG1, 63% at SBK1 and 100% on WNK2.
Regarding `O=C(c1ccc(-c2cnc3[nH]cc(Cl)c3c2NC2CCCC2)cc1)N1CCC(N2CCOCC2)CC1` [Compound 101, (4-(3-chloro-4-(cyclopentylamino)-1H-pyrrolo[2,3-b]pyridin-5-yl)phenyl)(4-morpholinopiperidin-1-yl)methanone], the remaining binding at 1 µM stood at 98% on ERK1; 100% on ICK; 22% at LRRK2(G2019S); 33% on MEK3; 95% on MTOR; 100% on NEK2. The remaining binding at 1 µM stood at 96% on PCTK2, 89% on PRKG1, 67% on SBK1 and 100% on WNK2.
Take `CNc1c(-c2cnn([C@H]3CCN(C(C)=O)C[C@@H]3F)c2)cnc2[nH]cc(Cl)c12` [Compound 77, 1-((3S,4S)-4-(4-(3-chloro-4-(methylamino)-1H-pyrrolo[2,3-b]pyridin-5-yl)-1H-pyrazol-1-yl)-3-fluoropiperidin-1-yl)ethan-1-one]: the remaining binding at 1 µM stood at 100% at ERK1; 35% on ICK; 11% at LRRK2(G2019S); 36% on MEK3; 60% on MTOR; 100% at NEK2. For the same compound, the remaining binding at 1 µM at PCTK2 came out at 100%; on PRKG1, 100%; on SBK1 it was 44%; at WNK2, 92%.

Values taken from patent US12275731B2, “Azaindole inhibitors of wild-type and mutant forms of LRRK2” (DANA-FARBER CANCER INSTITUTE, INC., priority 2018, dated 2025).
